Results: patent US20220204479A1, “PYRIMIDINE COMPOUND AND PREPARATION METHOD THEREFOR” (Wuhan Humanwell Innovative Drug Research And Development …, priority 2019, published 2022)
≈ marks a conversion by molar mass, not a printed value. Read-outs that look alike come from different tables or passages of the source.

Experiments:
ATX enzyme in rat plasma = target: T1, ATX enzyme in rat plasma (Rattus norvegicus, UniProt Q64610); assay: Inhibition of activity of ATX enzyme in rat plasma (LPA18:2 formation, LC-MSMS); type: biochemical; settings: for inhibitory activity on ATX enzyme in rat plasma compared with control compounds 1 and 2: comparison in words
T1 construct: Whole blood was collected from rats and anticoagulated with heparin; from tissue; host or cells: rat plasma (heparin)
Method: Whole blood was collected from rats and anticoagulated with heparin. The blood collection tubes were centrifuged at 3,000 rpm for 15 min, and the plasma was placed on ice for use.
The compound was serially diluted with DMSO: 30% ACN=1:19 according to the conventional concentration requirements, and then placed on ice. 147 μL of plasma, which was placed on ice, was added to a 96-well plate, and then 3 μL of each of the gradient solutions of the compound (finally 1[…] DMSO) was added. A group containing none of the compounds was set as the positive group. The 96-well plate was mixed uniformly, and incubated at 37° C. for 3 h. In addition, a blank group was also provided. At the beginning of the incubation, the plasma of blank group was added to with excessive acetonitrile containing the internal standard LPA17: 0 to precipitate the plasma protein, vortexed to mix, and stored at 4° C. The blank group was provided to determine the baseline concentration of endogenous LPA.
A peak area of LPA18: 2 and a peak area of internal standard LPA17: 0 were detected using LC-MSMS mass spectrometry.
(§1) A ratio of the peak area of LPA18: 2 to the peak area of internal standard LPA17: 0 was calculated, and a formation inhibition rate of LPA18: 2 was calculated according to the following formula:
(§2) Inhibition rate (%)=100−(compound group with different concentrations−blank group)/(positive group−blank group)*100
According to the inhibition rates of different concentrations of the compound, the IC50 value of the compound for inhibiting activity of ATX enzyme in rat plasma, was calculated.

[1] = Thermodynamic solubility test; type: physicochemical; settings: thermodynamic from solid
Method: The compound was accurately weighed, and the prepared phosphate buffer (pH 7.4), FeSSIF solution (pH 5.8) and FaSSGF solution (pH 1.6) were added to prepare a solution with a concentration of 4 mg/mL, which was shaken at 1,000 rpm for 1 hour, and then incubated overnight at room temperature. After the incubation, the solution was centrifuged at 12,000 rpm for 10 min to remove undissolved particles, and the supernatant was transferred to a new centrifuge tube. The supernatant was diluted appropriately, then added with an acetonitrile solution containing the internal standard, and quantified using a standard curve prepared with the same matrix.

autotaxin (ATX) enzyme = target: T2, autotaxin (ATX) enzyme (Homo sapiens, UniProt Q13822); assay: Autotaxin (ATX) enzyme activity inhibition test (Cayman Autotaxin Inhibitor Screening Assay Kit); type: biochemical; settings: 37° C., 30 min, OD405, read-out: IC50, inhibitory effect on ATX enzyme activity
T2 construct: purchased Cayman 700580
Method: The inhibitory effects of the compounds on the autotaxin enzyme were detected using the Autotaxin Inhibitor Screening Assay Kit (Cayman, 700580). […] Subsequently, the 8 concentrations were diluted with Autotaxin Assay buffer (1×) provided in the kit into 19× compound working solutions (DMSO content was 1.9%). The Autotaxin Assay Reagent (10×) was taken out and diluted by 10 times with Autotaxin Assay Buffer (1×). The Autotaxin Substrate was taken out, dissolved by adding 1.2 mL of Autotaxin Assay Buffer (1×), mixed evenly and let stand by at room temperature. In a 96-well plate, 150 μL of Autotaxin Assay Buffer (1×), 10 μL of the prepared and diluted 19× compound working solution, 10 μL of Autotaxin Assay Reagent (1×), and 20 μL of the dissolved Autotaxin Substrate were added to each of the wells for each concentration, and homogenously mixed. The 96-well plate was shaken in a constant temperature shaker at 37° C. and incubated in the dark for 30 min, and then the plate was taken out and placed on a microplate reader to read OD405.

[2] = target: T3, ATX enzyme in human plasma (Homo sapiens, UniProt Q13822); assay: Inhibition of activity of ATX enzyme in human plasma (LPA18:2 formation, LC-MSMS); type: biochemical; settings: for IC50: human plasma, 37° C., 3 h, LPA18:2 formation, read-out: IC50, inhibitory effect on activity of ATX enzyme in human plasma
T3 construct: Whole blood was collected from healthy volunteers and anticoagulated with heparin; from tissue; host or cells: human plasma (heparin) from healthy volunteers
Method: Whole blood was collected from healthy volunteers and anticoagulated with heparin. The blood collection tubes were centrifuged at 3,000 rpm for 10 min, and the plasma was taken and stored at −80° C. for use.
The compound was serially diluted with DMSO according to the conventional concentration requirements, then 3 μL of each of the diluted compound solutions was added to a 96-well plate, and 147 μL of PBS was added to each well containing 3 μL of the compound solution. After mixing homogenously, 50 μL of the mixture was taken out and added to a new 96-well plate. The human plasma was taken out from the −80° C. refrigerator and thawed through rapid shaking in a 37° C. water bath. 50 μL of the human plasma was taken and added to the 96-well plate containing 50 μL of the diluted compound (the final system contained 1% DMSO). The group without the compound was set as the positive group. The 96-well plate was shaken and mixed uniformly, and incubated at 37° C. for 3 h. A blank group was also provided, and the plasma of the blank group was stored at −80° C. The blank group is provided to determine the baseline concentration of endogenous LPA.
After the incubation was finished, the blank group was thawed on ice and transferred to an incubation plate. Excess acetonitrile containing the internal standard LPA17: 0 was added to the incubation plate to precipitate the plasma protein. After vortex centrifugation, the supernatant was taken and diluted, and a peak area of LPA18: 2 and a peak area of internal standard LPA17: 0 were detected using LC-MSMS mass spectrometry.
as §1, §2
According to the inhibition rates of different concentrations of the compound, the IC50 value of the compound for inhibiting activity of ATX enzyme in human plasma was calculated.

[3] = Pharmacokinetic test in rats; type: in vivo; settings: Sprague-Dawley, rat, plasma, male SD rats, oral gavage 10 mg/kg
Method: (§3) For the pharmacokinetic test of rats, 3 male SD rats (180-240 g) were used, and fasted overnight. The rats were orally administered by gavage (10 mg/kg). […] The blood samples were centrifuged at 8,000 rpm at 4° C. for 6 min, and plasma was collected and stored at −20° C. The plasma at each time point was taken and added with an acetonitrile solution containing internal standard in 3 to 5 times the amount, vortexed and mixed for 1 min, and centrifuged at 13,000 rpm at 4° C. for 10 min. The supernatant was collected, added with water in 3 times the amount, and mixed. An appropriate amount of the mixture was taken for LC-MS/MS analysis. The main pharmacokinetic parameters were analyzed using WinNonlin 7.0 software with non-compartmental model.

[4] = Pharmacokinetic test in canines; type: in vivo; settings: dog, plasma; male beagle dogs, oral gavage 5 mg/kg
Method: as §3
For the pharmacokinetics test of canines, 3 male beagle dogs (8 to 10 kg) were used, and fasted overnight. The dogs were orally administered by gavage (5 mg/kg). The rest of the operation is the same as the pharmacokinetic test in rats.

[5] = Human liver microsome stability test; settings: human liver microsomes; for Remaining percentage (%) of compound after incubation for 30 min: NADPH, 37° C.; for half-life at 1 µM: human
Method: The human liver microsome stability test was performed by incubating the compound and human liver microsomes in vitro for detection. First, the test compound was prepared into a 10 mM stock solution in DMSO solvent, and then the compound was diluted to 0.5 mM with acetonitrile. Human liver microsomes (Corning) were diluted with PBS and prepared as a microsome/buffer solution, which was used to dilute the 0.5 mM compound solution into a working solution. […] A deep-well multi-well plate was taken, 30 μL of the working solution and 15 μL of pre-warmed NADPH solution (6 mM) were sequentially added to each well to initiate a reaction, and the reaction was incubated at 37° C. […] After centrifugation, the supernatant was collected, and added with purified water in a ratio of 1:1 to perform LC-MS/MS detection. […] T1/2 was calculated by using Excel.

[6] = rat plasma, 37° C., 3 h, LPA18:2 formation, read-out: IC50, inhibitory effect on activity of ATX enzyme in rat plasma
[7] = FaSSGF solution, fassgf or other biorelevant, FaSSGF pH 1.6, overnight at room temperature, read-out: Solubility, FaSSGF (pH 1.6)
[8] = phosphate buffer (PBS), aqueous buffer, PBS pH 7.4, overnight at room temperature, read-out: Solubility, PBS (pH 7.4)
[9] = FeSSIF solution, FeSSIF pH 5.8, overnight at room temperature, read-out: Solubility, FeSSIF (pH 5.8)

| Compound | IC50 (ATX enzyme in rat plasma; [6]) [nM] | solubility [1, 7] [µg/mL] | solubility [1, 8] [µg/mL] | IC50 (autotaxin (ATX) enzyme) [nM] | IC50 [2] [nM] | also measured |
| --- | --- | --- | --- | --- | --- | --- |
| CC1CN(C(=O)c2cnc(NC3Cc4ccccc4C3)nc2)CCC1COCc1c[nH]nn1 (centres unmarked) [Compound I-4, (4-(((1H-1,2,3-triazol-4-yl)methoxy)methyl)-3-methylpiperidin-1-yl)(2-((2,3-dihydro-1H-inden-2-yl)amino)pyrimidin-5-yl)methanone] | 32.3 | 332 (≈ 741 µM) | 147 (≈ 329 µM) | – | – | – |
| CC1CC(COCc2c[nH]nn2)CCN1C(=O)c1cnc(NC2Cc3ccccc3C2)nc1 (centres unmarked) [Compound I-5, (4-(((1H-1,2,3-triazol-4-yl)methoxy)methyl)-2-methylpiperidin-1-yl)(2-((2,3-dihydro-1H-inden-2-yl)amino)pyrimidin-5-yl)methanone] | 10.7 | 448 (≈ 1000 µM) | 129 (≈ 288 µM) | 1.29 | 30.9 | inhibitory activity on ATX enzyme in rat plasma compared with control compounds 1 and 2 (ATX enzyme in rat plasma): higher inhibitory activity on ATX enzyme in rat plasma than the control compounds 1 and 2; solubility [1, 9]: 317 µg/mL (≈ 708 µM) |
| O=C(c1cnc(NC2Cc3ccc(F)cc3C2)nc1)N1CC2(CC(OCc3c[nH]nn3)C2)C1 (centres unmarked) [Compound I-10, (6-((1H-1,2,3-triazol-4-yl)methoxy)-2-azaspiro[3.3]heptan-2-yl)(2-((5-fluoro-2,3-dihydro-1H-inden-2-yl)amino)pyrimidin-5-yl)methanone] | 4.8 | – | – | 1.08 | 11.8 | inhibitory effect on ATX enzyme in human plasma compared with control compounds 1 and 2 ([2]; comparison in words): higher inhibitory effect on ATX enzyme in human plasma than the control compounds 1 and 2; inhibitory activity on ATX enzyme in rat plasma compared with control compounds 1 and 2 (ATX enzyme in rat plasma): higher inhibitory activity on ATX enzyme in rat plasma than the control compounds 1 and 2 |
| CC(OCc1c[nH]nn1)C1CCN(C(=O)c2cnc(NC3Cc4ccccc4C3)nc2)CC1 (centres unmarked) [Compound I-3, (4-(1-((1H-1,2,3-triazol-4-yl)methoxy)ethyl)piperidin-1-yl)(2-((2,3-dihydro-TH-inden-2-yl)amino)pyrimidin-5-yl)methanone] | – | – | – | 6.71 | 42.1 | – |
| CCc1nc2c(C)cc(N3CCN(CC(=O)N4CC(O)C4)CC3)cn2c1N(C)c1nc(-c2ccc(F)cc2)c(C#N)s1 [Control compound 2, reference compound] | – | – | – | – | – | IC50 (ATX enzyme in rat plasma): 413 nM; Tmax [3]: 30 min; AUC(0-t) ([3]; read-out: AUC0-t): 2570 ng·h/mL; Cmax ([3]; read-out: Cmax): 582 ng/mL; AUC(0-t) [4]: 14200 ng·h/mL; Cmax [4]: 2100 ng/mL; Tmax [4]: 120 min; Remaining percentage (%) of compound after incubation for 30 min [5]: 24.8%; half-life at 1 µM [5]: 16 min |
| O=C(c1cnc(NC2Cc3ccc(F)cc3C2)nc1)N1CCC(COCc2c[nH]nn2)CC1 (centres unmarked) [Compound I-7, (4-(((1H-1,2,3-triazol-4-yl)methoxy)methyl)piperidin-1-yl)(2-((5-fluoro-2,3-dihydro-1H-inden-2-yl)amino)pyrimidin-5-yl)methanone] | 14.7 | – | – | 1.16 | 14.6 | – |
| O=C(c1cnc(NC2Cc3cc(F)c(F)cc3C2)nc1)N1CCC(COCc2c[nH]nn2)CC1 [Compound I-8, (4-(((1H-1,2,3-triazol-4-yl)methoxy)methyl)piperidin-1-yl)(2-((5,6-difluoro-2,3-dihydro-1H-inden-2-yl)amino)pyrimidin-5-yl)methanone] | 136 | – | – | 2.04 | – | – |
| CC(OCC1CCN(C(=O)c2cnc(NC3Cc4ccccc4C3)nc2)CC1)c1cn[nH]n1 (centres unmarked) [Compound I-2, (4-((1-(2H-1,2,3-triazol-4-yl)ethoxy)methyl)piperidin-1-yl)(2-((2,3-dihydro-1H-inden-2-yl)amino)pyrimidin-5-yl)methanone] | – | – | – | 3.39 | 24.7 | Remaining percentage (%) of compound after incubation for 30 min [5]: 39.65%; half-life at 1 µM [5]: 24 min |
| O=C(c1cnc(NC2Cc3ccccc3C2)nc1)N1CCC(COCc2c[nH]nn2)C(F)C1 (centres unmarked) [Compound I-6, (4-(((1H-1,2,3-triazol-4-yl)methoxy)methyl)-3-fluoropiperidin-1-yl)(2-((2,3-dihydro-1H-inden-2-yl)amino)pyrimidin-5-yl)methanone] | 22.9 | 165 (≈ 366 µM) | 18.6 (≈ 41.2 µM) | 1.43 | 41.2 | solubility [1, 9]: 49 µg/mL (≈ 109 µM) |
